According to ChEMBL document CHEMBL1201861, “Genomics of Drug Sensitity in Cancer screening data, Wellcome Trust Sanger Institute”:
Structures can show the parent of a compound that is named as a salt.

Tests used:
Assay in all cases: cells
CTB-1 = type: functional, cell-based, Homo sapiens; details: Homo sapiens, CTB-1
Description: SANGER: Inhibition of human CTB-1 cell growth in a cell viability assay.

DB = type: functional, cell-based, Homo sapiens; details: Homo sapiens, DB
Description: SANGER: Inhibition of human DB cell growth in a cell viability assay.

DEL = type: functional, cell-based, Homo sapiens; details: Homo sapiens, DEL;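 also: growth inhibition of the human DEL cell line, read out with a cell viability assay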
Description: SANGER: Inhibition of human DEL cell growth in a cell viability assay.

EKVX = type: functional, cell-based, Homo sapiens; details: Homo sapiens, EKVX;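 also: growth inhibition of human EKVX cells, read out with a cell viability assay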
Description: SANGER: Inhibition of human EKVX cell growth in a cell viability assay.

ES5 = type: functional, cell-based, Homo sapiens; details: Homo sapiens, ES5;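 also: growth inhibition of human ES5 cells, read out by a cell viability assay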
Description: SANGER: Inhibition of human ES5 cell growth in a cell viability assay.

EW-1 = type: functional, cell-based, Homo sapiens; details: Homo sapiens, EW-1;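 also: growth inhibition of the human EW-1 cell line, read out by a cell viability assay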
Description: SANGER: Inhibition of human EW-1 cell growth in a cell viability assay.

GAK = type: functional, cell-based, Homo sapiens; details: Homo sapiens, GAK;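 also: cell growth inhibition read out by a cell viability assay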
Description: SANGER: Inhibition of human GAK cell growth in a cell viability assay.

GI-1 = type: functional, cell-based, Homo sapiens; details: Homo sapiens, GI-1;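 also: growth inhibition of human GI-1 cells, measured with a cell viability readout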
Description: SANGER: Inhibition of human GI-1 cell growth in a cell viability assay.

GOTO = type: functional, cell-based, Homo sapiens; details: Homo sapiens, GOTO;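 also: growth inhibition of GOTO cells, read out by a cell viability assay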
Description: SANGER: Inhibition of human GOTO cell growth in a cell viability assay.

HCC 2998 = type: functional, cell-based, Homo sapiens; details: Homo sapiens, HCC 2998;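 also: growth inhibition of human HCC2998 cells, measured with a cell viability read-out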
Description: SANGER: Inhibition of human HCC2998 cell growth in a cell viability assay.

HDLM-2 = type: functional, cell-based, Homo sapiens; details: Homo sapiens, HDLM-2;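 also: cell viability assay measuring suppression of HDLM-2 proliferation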
Description: SANGER: Inhibition of human HDLM-2 cell growth in a cell viability assay.

HuTu80 = type: functional, cell-based, Homo sapiens, HUTU-80; details: Homo sapiens, HuTu80;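 also: growth inhibition of HuTu80 human cells, determined with a cell viability readout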
Description: SANGER: Inhibition of human HUTU-80 cell growth in a cell viability assay.

IST-MES1 = type: functional, cell-based, Homo sapiens; details: Homo sapiens, IST-MES1;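 also: growth inhibition of IST-MES1 cells, measured with a cell viability assay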
Description: SANGER: Inhibition of human IST-MES1 cell growth in a cell viability assay.

JAR = type: functional, cell-based, Homo sapiens; details: Homo sapiens, JAR;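 also: growth inhibition of human JAR cells determined with a cell viability assay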
Description: SANGER: Inhibition of human JAR cell growth in a cell viability assay.

JVM-3 = type: functional, cell-based, Homo sapiens; details: Homo sapiens, JVM-3;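 also: growth inhibition of human JVM-3 cells, read out with a cell viability assay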
Description: SANGER: Inhibition of human JVM-3 cell growth in a cell viability assay.

KINGS-1 = type: functional, cell-based, Homo sapiens; details: Homo sapiens, KINGS-1;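 also: cell viability assay measuring suppression of KINGS-1 cell growth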
Description: SANGER: Inhibition of human KINGS-1 cell growth in a cell viability assay.

KNS-42 = type: functional, cell-based, Homo sapiens; details: Homo sapiens, KNS-42;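 also: growth inhibition of KNS-42 cells, read out with a cell viability assay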
Description: SANGER: Inhibition of human KNS-42 cell growth in a cell viability assay.

L-363 = type: functional, cell-based, Homo sapiens; details: Homo sapiens, L-363
Description: SANGER: Inhibition of human L-363 cell growth in a cell viability assay.

LC-2-ad = type: functional, cell-based, Homo sapiens; details: Homo sapiens, LC-2-ad;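 also: growth inhibition of human LC-2-ad cells, read out with a cell viability assay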
Description: SANGER: Inhibition of human LC-2-ad cell growth in a cell viability assay.

LS-123 = type: functional, cell-based, Homo sapiens; details: Homo sapiens, LS-123
Description: SANGER: Inhibition of human LS-123 cell growth in a cell viability assay.

LU-139 = type: functional, cell-based, Homo sapiens; details: Homo sapiens, LU-139
Description: SANGER: Inhibition of human LU-139 cell growth in a cell viability assay.

MEG-01 = type: functional, cell-based, Homo sapiens; details: Homo sapiens, MEG-01;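 also: growth inhibition of MEG-01 cells, read out by a cell viability assay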
Description: SANGER: Inhibition of human MEG-01 cell growth in a cell viability assay.

MFH-ino = type: functional, cell-based, Homo sapiens; details: Homo sapiens, MFH-ino;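 also: growth inhibition of human MFH-ino cells, read out by a cell viability assay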
Description: SANGER: Inhibition of human MFH-ino cell growth in a cell viability assay.

MFM-223 = type: functional, cell-based, Homo sapiens; details: Homo sapiens, MFM-223
Description: SANGER: Inhibition of human MFM-223 cell growth in a cell viability assay.

MOLT-16 = type: functional, cell-based, Homo sapiens; details: Homo sapiens, MOLT-16;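 also: growth inhibition of human MOLT-16 cells, read out with a cell viability assay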
Description: SANGER: Inhibition of human MOLT-16 cell growth in a cell viability assay.

MZ2-MEL = type: functional, cell-based, Homo sapiens; details: Homo sapiens, MZ2-MEL;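 also: growth inhibition of MZ2-MEL cells read out with a cell viability assay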
Description: SANGER: Inhibition of human MZ2-MEL cell growth in a cell viability assay.

MZ7-mel = type: functional, cell-based, Homo sapiens; details: Homo sapiens, MZ7-mel;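 also: growth inhibition of human MZ7-mel cells, measured by a cell viability assay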
Description: SANGER: Inhibition of human MZ7-mel cell growth in a cell viability assay.

NCI-H1648 = type: functional, cell-based, Homo sapiens; details: Homo sapiens, NCI-H1648;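 also: cell viability assay measuring inhibition of NCI-H1648 cell growth, from the Sanger screening data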
Description: SANGER: Inhibition of human NCI-H1648 cell growth in a cell viability assay.

NCI-H226 = type: functional, cell-based, Homo sapiens; details: Homo sapiens, NCI-H226;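 also: cell viability read-out used to gauge growth inhibition of the cells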
Description: SANGER: Inhibition of human NCI-H226 cell growth in a cell viability assay.

NCI-H446 = type: functional, cell-based, Homo sapiens; details: Homo sapiens, NCI-H446;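 also: growth inhibition of NCI-H446 cells determined by a cell viability assay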
Description: SANGER: Inhibition of human NCI-H446 cell growth in a cell viability assay.

NCI-H510A = type: functional, cell-based, Homo sapiens; details: Homo sapiens, NCI-H510A;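 also: growth inhibition of NCI-H510A cells, read out with a cell viability assay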
Description: SANGER: Inhibition of human NCI-H510A cell growth in a cell viability assay.

NCI-H720 = type: functional, cell-based, Homo sapiens; details: Homo sapiens, NCI-H720;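 also: growth inhibition of human NCI-H720 cells determined by a cell viability assay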
Description: SANGER: Inhibition of human NCI-H720 cell growth in a cell viability assay.

NCI-N87 = type: functional, cell-based, Homo sapiens; details: Homo sapiens, NCI-N87;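 also: growth inhibition of human NCI-N87 cells, read out with a cell viability assay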
Description: SANGER: Inhibition of human NCI-N87 cell growth in a cell viability assay.

NEC8 = type: functional, cell-based, Homo sapiens; details: Homo sapiens, NEC8;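 also: growth inhibition of human NEC8 cells, read out by a cell viability assay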
Description: SANGER: Inhibition of human NEC8 cell growth in a cell viability assay.

NTERA-2-cl-D1 = type: functional, cell-based, Homo sapiens; details: Homo sapiens, NTERA-2-cl-D1;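 also: inhibition of cell growth, measured with a cell viability assay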
Description: SANGER: Inhibition of human NTERA-S-cl-D1 cell growth in a cell viability assay.

OCI-AML2 = type: functional, cell-based, Homo sapiens; details: Homo sapiens, OCI-AML2;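 also: growth inhibition of OCI-AML2 cells, read out with a cell viability assay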
Description: SANGER: Inhibition of human OCI-AML2 cell growth in a cell viability assay.

OMC-1 = type: functional, cell-based, Homo sapiens; details: Homo sapiens, OMC-1;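 also: growth inhibition of the OMC-1 cell line, measured by a cell viability assay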
Description: SANGER: Inhibition of human OMC-1 cell growth in a cell viability assay.

OS-RC-2 = type: functional, cell-based, Homo sapiens; details: Homo sapiens, OS-RC-2;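 also: growth inhibition of human OS-RC-2 cells, measured by a cell viability assay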
Description: SANGER: Inhibition of human OS-RC-2 cell growth in a cell viability assay.

SHP77 = type: functional, cell-based, Homo sapiens, SHP-77; details: Homo sapiens, SHP77;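 also: growth inhibition of human SHP-77 cells measured by a cell viability assay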
Description: SANGER: Inhibition of human SHP-77 cell growth in a cell viability assay.

SK-MEL-2 = type: functional, cell-based, Homo sapiens; details: Homo sapiens, SK-MEL-2;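 also: growth inhibition of human SK-MEL-2 cells measured with a cell viability assay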
Description: SANGER: Inhibition of human SK-MEL-2 cell growth in a cell viability assay.

SK-N-DZ = type: functional, cell-based, Homo sapiens; details: Homo sapiens, SK-N-DZ;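 also: growth inhibition of the cancer cell line, read out through a viability assay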
Description: SANGER: Inhibition of human SK-N-DZ cell growth in a cell viability assay.

SW872 = type: functional, cell-based, Homo sapiens; details: Homo sapiens, SW872;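 also: growth inhibition of SW872 cells, read out by a viability assay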
Description: SANGER: Inhibition of human SW872 cell growth in a cell viability assay.

A388 = type: functional, cell-based, Homo sapiens; details: Homo sapiens, A388;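 also: growth inhibition of human A388 cells, read out with a cell viability assay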
Description: SANGER: Inhibition of human A388 cell growth in a cell viability assay.

ACN = type: functional, cell-based, Homo sapiens; details: Homo sapiens, ACN;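 also: growth inhibition of the human ACN cell line, read out via cell viability testing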
Description: SANGER: Inhibition of human ACN cell growth in a cell viability assay.

TE-12 = type: functional, cell-based, Homo sapiens; details: Homo sapiens, TE-12;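 also: growth inhibition of TE-12 cells, read out by a cell viability assay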
Description: SANGER: Inhibition of human TE-12 cell growth in a cell viability assay.

UACC-257 = type: functional, cell-based, Homo sapiens; details: Homo sapiens, UACC-257
Description: SANGER: Inhibition of human UACC-257 cell growth in a cell viability assay.

no-10 = type: functional, cell-based, Homo sapiens; details: Homo sapiens;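 also: growth inhibition of no-10 cells, read out with a cell viability assay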
Description: SANGER: Inhibition of human no-10 cell growth in a cell viability assay.

COLO-320-HSR = type: functional, cell-based, Homo sapiens; details: Homo sapiens, COLO-320-HSR;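 also: growth inhibition of COLO-320-HSR cells, determined with a cell viability assay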
Description: SANGER: Inhibition of human COLO-320-HSR cell growth in a cell viability assay.

D-247MG = type: functional, cell-based, Homo sapiens; details: Homo sapiens, D-247MG
Description: SANGER: Inhibition of human D-247MG cell growth in a cell viability assay.

COC1=CC(c2cc3ccccc3[nH]2)=N/C1=C\c1[nH]c(C)cc1C [OBATOCLAX MESYLATE]
IC50 (CTB-1): 0.0759 µM
IC50 (DB): 0.234 µM
IC50 (DEL): 0.0835 µM
IC50 (EKVX): 1.66 µM
IC50 (ES5): 0.605 µM
IC50 (EW-1): < 0.0625 µM
IC50 (GAK): < 0.0625 µM
IC50 (GI-1): 0.275 µM
IC50 (GOTO): 4.3 µM
IC50 (HCC 2998): < 0.0625 µM
IC50 (HDLM-2): 0.42 µM
IC50 (HuTu80): 0.104 µM
IC50 (IST-MES1): 0.286 µM
IC50 (JAR): > 16 µM
IC50 (JVM-3): > 16 µM
IC50 (KINGS-1): 0.826 µM
IC50 (KNS-42): 0.4 µM
IC50 (L-363): 0.0468 µM
IC50 (LC-2-ad): 0.0158 µM
IC50 (LS-123): 0.0872 µM
IC50 (LU-139): 6.08 µM
IC50 (MEG-01): 0.454 µM
IC50 (MFH-ino): 0.247 µM
IC50 (MFM-223): 3.37 µM
IC50 (MOLT-16): 1.73 µM
IC50 (MZ2-MEL): 0.0296 µM
IC50 (MZ7-mel): < 0.0625 µM
IC50 (NCI-H1648): 0.113 µM
IC50 (NCI-H226): 0.0663 µM
IC50 (NCI-H446): 0.95 µM
IC50 (NCI-H510A): 0.772 µM
IC50 (NCI-H720): > 16 µM
IC50 (NCI-N87): 4.39 µM
IC50 (NEC8): 0.0559 µM
IC50 (NTERA-2-cl-D1): 0.104 µM
IC50 (OCI-AML2): 0.0578 µM
IC50 (OMC-1): 0.721 µM
IC50 (OS-RC-2): 0.431 µM
IC50 (SHP77): 2.01 µM
IC50 (SK-MEL-2): 0.157 µM
IC50 (SK-N-DZ): 0.859 µM
IC50 (SW872): 0.16 µM
IC50 (A388): 0.057 µM
IC50 (ACN): < 0.0625 µM
IC50 (TE-12): 0.333 µM
IC50 (UACC-257): 0.595 µM
IC50 (no-10): 1.46 µM
IC50 (COLO-320-HSR): 0.0529 µM

COc1cc(N2CCN(C)CC2)ccc1Nc1ncc2c(n1)N(C)c1ccccc1C(=O)N2C
IC50 (CTB-1): 7.52 µM
IC50 (D-247MG): 1.58 µM
IC50 (DB): > 8 µM
IC50 (DEL): > 8 µM
IC50 (EKVX): > 8 µM
IC50 (ES5): > 8 µM
IC50 (EW-1): 3.84 µM
IC50 (GAK): > 8 µM
IC50 (GI-1): > 8 µM
IC50 (GOTO): > 8 µM
IC50 (HCC 2998): > 8 µM
IC50 (HDLM-2): > 8 µM
IC50 (HuTu80): > 8 µM
IC50 (IST-MES1): > 8 µM
IC50 (JAR): > 8 µM
IC50 (JVM-3): > 8 µM
IC50 (KINGS-1): > 8 µM
IC50 (KNS-42): > 8 µM
IC50 (L-363): > 8 µM
IC50 (LC-2-ad): > 8 µM
IC50 (LS-123): > 8 µM
IC50 (LU-139): 6.86 µM
IC50 (MEG-01): 4.76 µM
IC50 (MFH-ino): > 8 µM
IC50 (MFM-223): > 8 µM
IC50 (MOLT-16): 2.71 µM
IC50 (MZ2-MEL): > 8 µM
IC50 (MZ7-mel): 7.54 µM
IC50 (NCI-H1648): > 8 µM
IC50 (NCI-H226): > 8 µM
IC50 (NCI-H446): > 8 µM
IC50 (NCI-H510A): > 8 µM
IC50 (NCI-H720): > 8 µM
IC50 (NEC8): > 8 µM
IC50 (NTERA-2-cl-D1): 4.56 µM
IC50 (OCI-AML2): 3.6 µM
IC50 (OMC-1): > 8 µM
IC50 (OS-RC-2): > 8 µM
IC50 (SHP77): > 8 µM
IC50 (SK-MEL-2): > 8 µM
IC50 (SK-N-DZ): > 8 µM
IC50 (SW872): > 8 µM
IC50 (A388): 6.57 µM
IC50 (ACN): > 8 µM
IC50 (TE-12): 5.5 µM
IC50 (UACC-257): 7.11 µM
IC50 (no-10): > 8 µM
IC50 (COLO-320-HSR): > 8 µM

CC[C@H](CO)Nc1nc(NCc2ccccc2)c2ncn(C(C)C)c2n1 [SELICICLIB]
IC50 (CTB-1): > 16 µM
IC50 (D-247MG): 12.4 µM
IC50 (DB): > 16 µM
IC50 (DEL): > 16 µM
IC50 (EKVX): > 16 µM
IC50 (ES5): > 16 µM
IC50 (EW-1): > 16 µM
IC50 (GI-1): > 16 µM
IC50 (GOTO): > 16 µM
IC50 (HCC 2998): > 16 µM
IC50 (HDLM-2): > 16 µM
IC50 (HuTu80): > 16 µM
IC50 (IST-MES1): > 16 µM
IC50 (JAR): > 16 µM
IC50 (JVM-3): > 16 µM
IC50 (KINGS-1): > 16 µM
IC50 (KNS-42): > 16 µM
IC50 (L-363): > 16 µM
IC50 (LC-2-ad): > 16 µM
IC50 (LS-123): > 16 µM
IC50 (LU-139): > 16 µM
IC50 (MEG-01): 13.8 µM
IC50 (MFH-ino): > 16 µM
IC50 (MFM-223): > 16 µM
IC50 (MOLT-16): > 16 µM
IC50 (MZ2-MEL): > 16 µM
IC50 (MZ7-mel): > 16 µM
IC50 (NCI-H1648): > 16 µM
IC50 (NCI-H226): > 16 µM
IC50 (NCI-H446): > 16 µM
IC50 (NCI-H510A): > 16 µM
IC50 (NCI-H720): > 16 µM
IC50 (NEC8): > 16 µM
IC50 (NTERA-2-cl-D1): > 16 µM
IC50 (OCI-AML2): 15.6 µM
IC50 (OMC-1): > 16 µM
IC50 (OS-RC-2): 15.8 µM
IC50 (SHP77): > 16 µM
IC50 (SK-MEL-2): > 16 µM
IC50 (SK-N-DZ): > 16 µM
IC50 (SW872): > 16 µM
IC50 (A388): > 16 µM
IC50 (ACN): > 16 µM
IC50 (TE-12): > 16 µM
IC50 (UACC-257): > 16 µM
IC50 (no-10): > 16 µM
IC50 (COLO-320-HSR): > 16 µM
